Experimental data as given in patent US6440964B1, “Compositions and methods for treating ophthalmic and otic infections” (priority 1998, dated 2002).
In brackets after ≈: the same amount, converted by molar mass. Like-named read-outs stand apart in the source and are kept apart here.

How the values were obtained:
Microbacterium alconae = test: In vitro activity (MIC) by agar and broth dilution methods against clinical isolates; type: cell-based; details: for MIC: read-out: minimum inhibitory concentration (MIC)
Method: (§1) The activity levels were determined as MIC (minimum inhibitory concentration) values. In order to compare the activity of the compounds of the present invention to other antibiotics, MIC values for representatives quinolones, aminoglycosides, β-lactams and other types of antibiotics were also determined. […] The MCC numbers (e.g., “MCC 10647”) represent separate clinical isolates of the two Microbacterium species tested.

Microbacterium otitidis = test: as above; type: cell-based; details: for MIC: read-out: minimum inhibitory concentration (MIC)
Method: as §1

[1] = system: H. influenzae/β-lactamase positive; test: MIC90 of Moxifloxacin for bacteria associated with ophthalmic, otic and nasal infections; type: cell-based
Description: (§2) The concentrations of the antibiotics of formula (I) in the compositions of the present invention will vary depending on the intended use of the compositions (e.g., treatment of existing infections or prevention of post-surgical infections), and the relative antimicrobial activity of the specific antibiotic selected. The antimicrobial activity of antibiotics is generally expressed as the minimum concentration required to inhibit the growth of a specified pathogen. This concentration is also referred to as the “minimum inhibitory concentration” or “MIC”. The term “MIC90” refers to the minimum concentration of antibiotic required to inhibit the growth of ninety percent (90%) of the strains of a species. The concentration of an antibiotic required to totally kill a specified bacteria is referred to as the “minimum bactericidal concentration” or “MBC”.

[2] = system: S. epidermidis/methicillin sensitive; test: as above; type: cell-based
Description: as §2

[3] = system: S. aureus/methicillin sensitive; test: as above; type: cell-based
Description: as §2

[4] = system: S. aureus/methicillin resistant; test: as above; type: cell-based
Description: as §2

[5] = system: H influenzae/βlactamase negative; test: as above; type: cell-based
Description: as §2

[6] = system: S. aureus/quinolone resistant; test: as above; type: cell-based
Description: as §2

[7] = system: S. pneumoniae/penicillin resistant; test: as above; type: cell-based
Description: as §2

[8] = system: S. pneumoniae/penicillin sensitive; test: as above; type: cell-based
Description: as §2

[9] = system: S. epidermidis/methicillin resistant; test: as above; type: cell-based
Description: as §2

P. aeruginosa = test: as above; type: cell-based
Description: as §2

M. alconae = test: as above; type: cell-based, Microbacterium alconae
Description: as §2

M. otitidis = test: as above; type: cell-based, Microbacterium otitidis
Description: as §2

O=C(N[C@H](CO)[C@H](O)c1ccc([N+](=O)[O-])cc1)C(Cl)Cl [Chloramphenicol]
MIC (Microbacterium alconae; clinical isolate MCC 11316): 16 µg/mL (≈ 49.5 µM)
MIC (Microbacterium alconae; clinical isolate MCC 11558): 16 µg/mL (≈ 49.5 µM)
MIC (Microbacterium alconae; clinical isolate MCC 11639): 16 µg/mL (≈ 49.5 µM)
MIC (Microbacterium alconae; clinical isolate MCC 11653): 16 µg/mL (≈ 49.5 µM)
MIC (Microbacterium alconae; clinical isolate MCC 11699): 16 µg/mL (≈ 49.5 µM)
MIC (Microbacterium otitidis; clinical isolate MCC 10647): 1 µg/mL (≈ 3.09 µM)
MIC (Microbacterium otitidis; clinical isolate MCC 10810): 1 µg/mL (≈ 3.09 µM)
MIC (Microbacterium otitidis; clinical isolate MCC 10990): 1 µg/mL (≈ 3.09 µM)
MIC (Microbacterium otitidis; clinical isolate MCC 11495): 1 µg/mL (≈ 3.09 µM)
MIC (Microbacterium otitidis; clinical isolate MCC 11676): 1 µg/mL (≈ 3.09 µM)

CCC[C@@H]1C[C@@H](C(=O)N[C@@H]([C@H]2O[C@H](SC)[C@H](O)[C@@H](O)[C@H]2O)[C@H](C)Cl)N(C)C1 [Clindamycin]
MIC (Microbacterium alconae; clinical isolate MCC 11316): 4 µg/mL (≈ 9.41 µM)
MIC (Microbacterium alconae; clinical isolate MCC 11558): 4 µg/mL (≈ 9.41 µM)
MIC (Microbacterium alconae; clinical isolate MCC 11639): 4 µg/mL (≈ 9.41 µM)
MIC (Microbacterium alconae; clinical isolate MCC 11653): 4 µg/mL (≈ 9.41 µM)
MIC (Microbacterium alconae; clinical isolate MCC 11699): 4 µg/mL (≈ 9.41 µM)
MIC (Microbacterium otitidis; clinical isolate MCC 10647): 0.03 µg/mL (≈ 0.0706 µM)
MIC (Microbacterium otitidis; clinical isolate MCC 10810): 0.03 µg/mL (≈ 0.0706 µM)
MIC (Microbacterium otitidis; clinical isolate MCC 10990): 0.03 µg/mL (≈ 0.0706 µM)
MIC (Microbacterium otitidis; clinical isolate MCC 11495): 0.03 µg/mL (≈ 0.0706 µM)
MIC (Microbacterium otitidis; clinical isolate MCC 11676): 0.03 µg/mL (≈ 0.0706 µM)

CC[C@H]1OC(=O)[C@H](C)[C@@H](O[C@H]2C[C@@](C)(OC)[C@@H](O)[C@H](C)O2)[C@H](C)[C@@H](O[C@@H]2O[C@H](C)C[C@H](N(C)C)[C@H]2O)[C@](C)(O)C[C@@H](C)C(=O)[C@H](C)[C@@H](O)[C@]1(C)O [Erythromycin]
MIC (Microbacterium alconae; clinical isolate MCC 11316): 1 µg/mL (≈ 1.36 µM)
MIC (Microbacterium alconae; clinical isolate MCC 11558): 2 µg/mL (≈ 2.73 µM)
MIC (Microbacterium alconae; clinical isolate MCC 11639): 2 µg/mL (≈ 2.73 µM)
MIC (Microbacterium alconae; clinical isolate MCC 11653): 0.5 µg/mL (≈ 0.681 µM)
MIC (Microbacterium alconae; clinical isolate MCC 11699): 0.5 µg/mL (≈ 0.681 µM)
MIC (Microbacterium otitidis; clinical isolate MCC 10647): 0.03 µg/mL (≈ 0.0409 µM)
MIC (Microbacterium otitidis; clinical isolate MCC 10810): 0.03 µg/mL (≈ 0.0409 µM)
MIC (Microbacterium otitidis; clinical isolate MCC 10990): 0.03 µg/mL (≈ 0.0409 µM)
MIC (Microbacterium otitidis; clinical isolate MCC 11495): 0.03 µg/mL (≈ 0.0409 µM)
MIC (Microbacterium otitidis; clinical isolate MCC 11676): 0.03 µg/mL (≈ 0.0409 µM)

CC1COc2c(N3CCN(C)CC3)c(F)cc3c(=O)c(C(=O)O)cn1c23 (stereo not shown) [Ofloxacin]
MIC (Microbacterium alconae; clinical isolate MCC 11316): 4 µg/mL (≈ 11.1 µM)
MIC (Microbacterium alconae; clinical isolate MCC 11558): 4 µg/mL (≈ 11.1 µM)
MIC (Microbacterium alconae; clinical isolate MCC 11639): 4 µg/mL (≈ 11.1 µM)
MIC (Microbacterium alconae; clinical isolate MCC 11653): 4 µg/mL (≈ 11.1 µM)
MIC (Microbacterium alconae; clinical isolate MCC 11699): 4 µg/mL (≈ 11.1 µM)
MIC (Microbacterium otitidis; clinical isolate MCC 10647): 16 µg/mL (≈ 44.3 µM)
MIC (Microbacterium otitidis; clinical isolate MCC 10810): 32 µg/mL (≈ 88.6 µM)
MIC (Microbacterium otitidis; clinical isolate MCC 10990): 8 µg/mL (≈ 22.1 µM)
MIC (Microbacterium otitidis; clinical isolate MCC 11495): 16 µg/mL (≈ 44.3 µM)
MIC (Microbacterium otitidis; clinical isolate MCC 11676): 8 µg/mL (≈ 22.1 µM)

Cc1onc(-c2ccccc2)c1C(=O)N[C@@H]1C(=O)N2[C@@H]1SC(C)(C)[C@@H]2C(=O)O [Oxacillin]
MIC (Microbacterium alconae; clinical isolate MCC 11316): 8 µg/mL (≈ 19.9 µM)
MIC (Microbacterium alconae; clinical isolate MCC 11558): 16 µg/mL (≈ 39.9 µM)
MIC (Microbacterium alconae; clinical isolate MCC 11639): 32 µg/mL (≈ 79.7 µM)
MIC (Microbacterium alconae; clinical isolate MCC 11653): 32 µg/mL (≈ 79.7 µM)
MIC (Microbacterium alconae; clinical isolate MCC 11699): 32 µg/mL (≈ 79.7 µM)
MIC (Microbacterium otitidis; clinical isolate MCC 10647): 2 µg/mL (≈ 4.98 µM)
MIC (Microbacterium otitidis; clinical isolate MCC 10810): 4 µg/mL (≈ 9.96 µM)
MIC (Microbacterium otitidis; clinical isolate MCC 10990): 2 µg/mL (≈ 4.98 µM)
MIC (Microbacterium otitidis; clinical isolate MCC 11495): 4 µg/mL (≈ 9.96 µM)
MIC (Microbacterium otitidis; clinical isolate MCC 11676): 2 µg/mL (≈ 4.98 µM)

CN(C)[C@@H]1C(O)=C(C(N)=O)C(=O)[C@@]2(O)C(O)=C3C(=O)c4c(O)cccc4[C@@](C)(O)[C@H]3C[C@@H]12 [Tetracycline]
MIC (Microbacterium alconae; clinical isolate MCC 11316): 1 µg/mL (≈ 2.25 µM)
MIC (Microbacterium alconae; clinical isolate MCC 11558): 1 µg/mL (≈ 2.25 µM)
MIC (Microbacterium alconae; clinical isolate MCC 11639): 1 µg/mL (≈ 2.25 µM)
MIC (Microbacterium alconae; clinical isolate MCC 11653): 1 µg/mL (≈ 2.25 µM)
MIC (Microbacterium alconae; clinical isolate MCC 11699): 1 µg/mL (≈ 2.25 µM)
MIC (Microbacterium otitidis; clinical isolate MCC 10647): 1 µg/mL (≈ 2.25 µM)
MIC (Microbacterium otitidis; clinical isolate MCC 10810): 1 µg/mL (≈ 2.25 µM)
MIC (Microbacterium otitidis; clinical isolate MCC 10990): 1 µg/mL (≈ 2.25 µM)
MIC (Microbacterium otitidis; clinical isolate MCC 11495): 1 µg/mL (≈ 2.25 µM)
MIC (Microbacterium otitidis; clinical isolate MCC 11676): 1 µg/mL (≈ 2.25 µM)

NC[C@H]1O[C@H](O[C@H]2[C@H](O)[C@@H](O[C@H]3O[C@H](CO)[C@@H](O)[C@H](N)[C@H]3O)[C@H](N)C[C@@H]2N)[C@H](N)C[C@@H]1O [Tobramycin]
MIC (Microbacterium alconae; clinical isolate MCC 11316): 16 µg/mL (≈ 34.2 µM)
MIC (Microbacterium alconae; clinical isolate MCC 11558): 16 µg/mL (≈ 34.2 µM)
MIC (Microbacterium alconae; clinical isolate MCC 11639): 16 µg/mL (≈ 34.2 µM)
MIC (Microbacterium alconae; clinical isolate MCC 11653): 16 µg/mL (≈ 34.2 µM)
MIC (Microbacterium alconae; clinical isolate MCC 11699): 16 µg/mL (≈ 34.2 µM)
MIC (Microbacterium otitidis; clinical isolate MCC 10647): 32 µg/mL (≈ 68.4 µM)
MIC (Microbacterium otitidis; clinical isolate MCC 10810): 4 µg/mL (≈ 8.56 µM)
MIC (Microbacterium otitidis; clinical isolate MCC 10990): 4 µg/mL (≈ 8.56 µM)
MIC (Microbacterium otitidis; clinical isolate MCC 11495): 4 µg/mL (≈ 8.56 µM)
MIC (Microbacterium otitidis; clinical isolate MCC 11676): 16 µg/mL (≈ 34.2 µM)

Gentamicin
minimum inhibitory concentration (MIC) (Microbacterium alconae; clinical isolate MCC 11316): 2.0 micrograms per milliliter
minimum inhibitory concentration (MIC) (Microbacterium alconae; clinical isolate MCC 11558): 2.0 micrograms per milliliter
minimum inhibitory concentration (MIC) (Microbacterium alconae; clinical isolate MCC 11639): 2.0 micrograms per milliliter
minimum inhibitory concentration (MIC) (Microbacterium alconae; clinical isolate MCC 11653): 2.0 micrograms per milliliter
minimum inhibitory concentration (MIC) (Microbacterium alconae; clinical isolate MCC 11699): 2.0 micrograms per milliliter
minimum inhibitory concentration (MIC) (Microbacterium otitidis; clinical isolate MCC 10647): 8.0 micrograms per milliliter
minimum inhibitory concentration (MIC) (Microbacterium otitidis; clinical isolate MCC 10810): 4.0 micrograms per milliliter
minimum inhibitory concentration (MIC) (Microbacterium otitidis; clinical isolate MCC 10990): 4.0 micrograms per milliliter
minimum inhibitory concentration (MIC) (Microbacterium otitidis; clinical isolate MCC 11495): 16 micrograms per milliliter
minimum inhibitory concentration (MIC) (Microbacterium otitidis; clinical isolate MCC 11676): 4.0 micrograms per milliliter

Moxifloxacin
MIC90 [1]: 0.06 µg/mL
MIC90 [2]: 0.25 µg/mL
MIC90 [3]: 0.13 µg/mL
MIC90 [4]: 4.0 µg/mL
MIC90 [5]: 0.06 µg/mL
MIC90 [6]: 4.0 µg/mL
MIC90 [7]: 0.25 µg/mL
MIC90 [8]: 0.25 µg/mL
MIC90 [9]: 4.0 µg/mL
MIC90 (P. aeruginosa): 8.0 µg/mL
MIC90 (M. alconae): 0.25 µg/mL
MIC90 (M. otitidis): 2.0 µg/mL

Neomycin
minimum inhibitory concentration (MIC) (Microbacterium alconae; clinical isolate MCC 11316): 1.0 micrograms per milliliter
minimum inhibitory concentration (MIC) (Microbacterium alconae; clinical isolate MCC 11558): 1.0 micrograms per milliliter
minimum inhibitory concentration (MIC) (Microbacterium alconae; clinical isolate MCC 11639): 1.0 micrograms per milliliter
minimum inhibitory concentration (MIC) (Microbacterium alconae; clinical isolate MCC 11653): 1.0 micrograms per milliliter
minimum inhibitory concentration (MIC) (Microbacterium alconae; clinical isolate MCC 11699): 1.0 micrograms per milliliter
minimum inhibitory concentration (MIC) (Microbacterium otitidis; clinical isolate MCC 10647): 8.0 micrograms per milliliter
minimum inhibitory concentration (MIC) (Microbacterium otitidis; clinical isolate MCC 10810): 2.0 micrograms per milliliter
minimum inhibitory concentration (MIC) (Microbacterium otitidis; clinical isolate MCC 10990): 2.0 micrograms per milliliter
minimum inhibitory concentration (MIC) (Microbacterium otitidis; clinical isolate MCC 11495): 8.0 micrograms per milliliter
minimum inhibitory concentration (MIC) (Microbacterium otitidis; clinical isolate MCC 11676): 2.0 micrograms per milliliter

Polymyxin B
minimum inhibitory concentration (MIC) (Microbacterium alconae; clinical isolate MCC 11316): 32.5 micrograms per milliliter
minimum inhibitory concentration (MIC) (Microbacterium alconae; clinical isolate MCC 11558): 32.5 micrograms per milliliter
minimum inhibitory concentration (MIC) (Microbacterium alconae; clinical isolate MCC 11639): 16 micrograms per milliliter
minimum inhibitory concentration (MIC) (Microbacterium alconae; clinical isolate MCC 11653): 16 micrograms per milliliter
minimum inhibitory concentration (MIC) (Microbacterium alconae; clinical isolate MCC 11699): 16 micrograms per milliliter
minimum inhibitory concentration (MIC) (Microbacterium otitidis; clinical isolate MCC 10647): 1040 micrograms per milliliter
minimum inhibitory concentration (MIC) (Microbacterium otitidis; clinical isolate MCC 10810): 260 micrograms per milliliter
minimum inhibitory concentration (MIC) (Microbacterium otitidis; clinical isolate MCC 10990): 260 micrograms per milliliter
minimum inhibitory concentration (MIC) (Microbacterium otitidis; clinical isolate MCC 11495): 1040 micrograms per milliliter
minimum inhibitory concentration (MIC) (Microbacterium otitidis; clinical isolate MCC 11676): 16 micrograms per milliliter
